# Experiments:
# Type in all cases: cell-based
# [1] = tested on: Bacillus subtilis BKM B-501; assay: Antibacterial activity, serial dilutions in liquid MH medium; details: for MIC: MH medium, 20 h, 37° C., 100% growth inhibition; for MBC: no colonies on agarized MH medium
# Procedure, shortened: (§1)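 Broth microdilution in Mueller-Hinton medium at 37 °C with stirring, using exponential-phase cultures seeded at 5×10^4 to 1×10^5 cells/mL with twofold serial compound dilutions. Growth inhibition read as A595 after 20 h, corrected for compound absorbance; MIC and MBC determined.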
# [2] = tested on: Micrococcus luteus BKM Ac-2230; assay: as above; details: for MIC: MH medium, 20 h, 37° C., 100% growth inhibition; for MBC: no colonies on agarized MH medium
# Procedure, shortened: as §1
# Escherichia coli 4300 = assay: Antibacterial specific activity, twofold dilutions, visual growth evaluation; details: E. coli 4300; 36° C., 24 hours
# [3] = tested on: Staphylococcus aureus No. 25923 ATCC; assay: as above; details: S. aureus 25923; 36° C., 24 hours
# Procedure, shortened: (§2)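 MIC = last dilution preventing visible growth after 24 h at 36° C., judged against compound-free wells. Inoculum 5×10^5 CFU/ml; compounds serially diluted twofold from water stock ([…]) or DMSO stock ([…]).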
# [4] = tested on: Enterococcus faecalis No. 559; assay: as above; details: E. faecalis 559; 36° C., 24 hours
# Procedure, shortened: as §2
# [5] = tested on: Staphylococcus aureus No. 5 (MRSA); assay: as above; details: St. aur No. 5 MRSA; 36° C., 24 hours
# Procedure, shortened: as §2
# [6] = tested on: Staphylococcus epidermidis No. 533; assay: as above; details: S. epidermis 533; 36° C., 24 hours
# Procedure, shortened: as §2
# [7] = tested on: Staphylococcus aureus No. 100 KC; assay: as above; details: S. aureus 100 KC; 36° C., 24 hours
# Procedure, shortened: as §2
# [8] = tested on: Staphylococcus aureus 209P; assay: Antibacterial activity, serial dilutions in liquid MH medium; details: for MBC: no colonies on agarized MH medium
# Procedure, shortened: as §1
compound,measurement,setting,value
"6,7-bis-(Amide N^α-Glycyl)-Protohemin (IX) [IV]",MIC,[1],1.6 µM
same,MBC,[1],1.6 µM
same,MIC,[2],0.8 µM
same,MBC,[2],0.8 µM
same,MIC,Escherichia coli 4300,>50.0 µM
same,MIC,[3],0.39 µM
same,MIC,[4],0.39 µM
same,MIC,[5],3.12 µM
same,MIC,[6],1.56 µM
same,MIC,[7],0.39 µM
"6,7-bis-[(Diamide N^α-L-Arginyl)-L-glutamyl]-Protohemin (IX)",MIC,[1],1.6 µM
same,MBC,[1],1.6 µM
same,MIC,[2],0.8 µM
same,MBC,[2],0.8 µM
same,MBC,[8],25 µM
same,MIC,Escherichia coli 4300,16.6 µM
same,MIC,[3],1.56 µM
same,MIC,[4],3.12 µM
same,MIC,[6],0.78 µM
same,MIC,[7],0.78 µM
"C=CC1=C(C)c2cc3[n-]c(cc4[n-]c(cc5nc(cc1n2)C(C)=C5C=C)c(C)c4CCC(=O)N[C@@H](CCCNC(=N)N)C(N)=O)c(CCC(=O)N[C@@H](CCCNC(=N)N)C(N)=O)c3C.[Cl-].[Fe+3] [II, 6,7-bis-(Amide N^α-Arginyl)-Protohemin (IX)]",MIC,[1],0.8 µM
same,MBC,[1],0.8 µM
same,MIC,[2],0.8 µM
same,MBC,[2],0.8 µM
same,MBC,[8],6.3 µM
same,MIC,Escherichia coli 4300,41.6 µM
same,MIC,[3],1.04 µM
same,MIC,[4],1.3 µM
same,MIC,[5],41 µM
same,MIC,[6],0.39 µM
same,MIC,[7],2.6 µM
"C=CC1=C(C)c2cc3[n-]c(cc4[n-]c(cc5nc(cc1n2)C(C)=C5C=C)c(C)c4CCC(=O)N[C@@H](CO)C(N)=O)c(CCC(=O)N[C@@H](CO)C(N)=O)c3C.[Cl-].[Fe+3] [V, 6,7-bis-(Amide N^α-Seryl)-Protohemin (IX)]",MIC,[1],1.6 µM
same,MBC,[1],1.6 µM
same,MIC,[2],0.8 µM
same,MBC,[2],0.8 µM
same,MBC,[8],12.5 µM
same,MIC,Escherichia coli 4300,>50.0 µM
same,MIC,[3],0.78 µM
same,MIC,[4],25 µM
same,MIC,[5],1.56 µM
same,MIC,[6],1.56 µM
same,MIC,[7],0.52 µM
"C=CC1=C(C)c2cc3[n-]c(cc4[n-]c(cc5nc(cc1n2)C(C)=C5C=C)c(C)c4CCC(=O)N[C@@H](CO)C(=O)O)c(CCC(=O)N[C@@H](CO)C(=O)O)c3C.[Cl-].[Fe+3] [VI, 6,7-bis-(N^α-Seryl]-Protohemin (IX)]",MIC,[1],12.5 µM
same,MBC,[1],25 µM
same,MIC,[2],6.3 µM
same,MBC,[2],25 µM
same,MIC,"[8]; MH medium, 20 h, 37° C., 100% growth inhibition",50 µM
same,MIC,Escherichia coli 4300,>50.0 µM
same,MIC,[3],12.5 µM
same,MIC,[4],>50.0 µM
same,MIC,[5],0.78 µM
same,MIC,[6],3.12 µM
same,MIC,[7],5.21 µM

# Reference: patent US9605013B2, “Derivatives of hemin with antibacterial and antiviral activity” (OBSCHESTVO S OGRANICHENNOI OTVETSTVENNOSTIYU …, priority 2011, dated 2017)
